Where two headings read alike, the source gives them in different places.

Data on four compounds can be found in patent USRE50096E1, “Nanoemulsion compositions of taxoid drugs, and methods for the use thereof to target cancer cells and cancer stem cells” (TargaGenix, Inc., priority 2016, dated 2024).

The subject of data set [1] is drug resistant (Pgp+) colon tumor xenografts. As to conditions: mouse, in vivo; cited from earlier work.
A further data set concerns HT29 spheroids. Description: Colon cancer stem cell 3D spheroids, HT29. It is filed as cell-based, human. As for the experimental part: (§1) In another example, stem-cell enriched populations of colon cancer cells were selected from three invasive colon cancer cell lines, HCT116, HT29, and DLD-1. The populations were grown as 3D multicellular spheroids.
HT29: ACAN, ALPI, BMP3, CD3D, CD4, CD8A, CD8B, CDH2, COL2A1, COL9A1, DHH, DLL1, DLL3, DTX1, FGF1, FGF3, FZD1, GDF2, IGF1, MME, MYOD, NCAM1, NEUROG2, S100B, SOX2, and TERT;

Another data set relates to tubulin. Conditions: cited from earlier work.
In the next data set the test system is DLD-1 spheroids. Description: Colon cancer stem cell 3D spheroids, DLD-1. The format is cell-based, human. As for the experimental part: as §1
DLD-1: CD4, CDH2, COL1A1, DLL1, DTX1, IGF1, FGF3, FZD1, JAG1, KRT15, MSX1, NCAM1 and NOTCH1 (Botchkina, et al., 2010).

Another data set has as its system CD133+ PPT2 cells. Kind of data set: Stemness gene expression in PPT2 cells (PCR array, Western blot). It is filed as cell-based, human. As for the experimental part:
Experiments were carried out with a patient-derived cancer stem cell line for prostate cancer, PPT2 (Botchkina 2013, Rowehl 2014). The cell line PPT2 was generated from a patient-derived prostate cancer tumor. […] The PPT2 cell line was serially propagated as NOD/SCID mice tumor xenografts, floating 3D spheroids and type I collagen-adherent cultures. According to the ATCC report (ID number 002872), the PPT2 cells were unique human cells not contaminated with any known established cell lines. Although phenotype of the CSC-enriched cultures was dynamic due to the dual nature of the CSCs (i.e., ability to self-renew and to generate committed progenitors), the PPT2 cells retained a relatively stable phenotype, even up to 8 weeks after MACS-CD133^+ cell sorting and culturing on type I collagen coated surfaces in serum-free medium. […] Both nuclear and cytoplasmic fractions of the PPT2 cells expressed c-Myc, whereas other pluripotency markers (Oct-4 and Sox-2) were detected only in nuclear fraction. […]
To characterize possible drug induced alterations in stemness gene expression, CD133^+ PPT2 cells were analyzed before and after treatment with a combination of SBT-1214 and CMC 2.24, a chemically-modified curcumin. […]

Data set [2] deals with human CFPAC-1 ductal pancreatic adenocarcinoma xenograft. Description: CFPAC-1 pancreatic adenocarcinoma xenograft in SCID mice. Conditions: for tumor growth delay as compared to vehicles: mouse, in vivo.
Data set [3] deals with drug resistant cancer cells, expressing MDR phenotypes. Conditions: cited from earlier work.
The test system of a further data set is HCT116 spheroids. Description: Colon cancer stem cell 3D spheroids, HCT116. The format is cell-based, human. As for the experimental part:
as §1
HCT116: SOX1, RPL13A, BMP1, BMP3, NEUROG2, GJB1, GJA1, ASCL2, CTNNA1, GDF2, ALPI, S100B, CD8B1, ACTB, CCND1, FGF1, PARD6A, DVL1, GDF3, ISL1, CD3D, MME, FGFR1, RB1, AIN1, ALDH1A1, CD8A, PPARD, FZD1, NUMB and ABCG2;

In data set [4] the test system is H460 human non-small cell lung tumor xenograft. Description: H460 non-small cell lung tumor xenograft in SCID mice. Conditions: for tumor growth delay: at (about) MTD.
For data set [5] the test system is unchanged. Conditions: mouse, in vivo.
For data set [6], the system named is human PANC-1 pancreatic tumor xenograft. Description: PANC-1 pancreatic tumor xenograft in SCID mice. Conditions: for complete remissions: mouse, in vivo. The format is in vivo, RPCI SCID mice. An excerpt: This experiment compared a q7dx3 with a q3dx3 schedule for PX and DHA-SBT-1214 using a human PANC-1 pancreatic tumor xenograft in RPCI SCID mice.
The subject of data set [7] is paclitaxel-resistant, Pgp(+) DLD1 human colon tumor xenograft. Kind of data set: DLD1 human colon tumor xenograft in SCID mice.
Setting [8] is: 80 mg/kg dose on days 5, 8, and 11.

For `CC(=O)O[C@@]12CO[C@@H]1C[C@H](O)[C@@]1(C)C(=O)[C@H](OC(=O)C3CC3)C3=C(C)[C@@H](OC(=O)[C@H](O)[C@H](C=C(C)C)NC(=O)OC(C)(C)C)C[C@@](O)([C@@H](OC(=O)c4ccccc4)[C@H]21)C3(C)C` [SBT-1214], the “long-term regression and tumor growth delay” value in data set [1] is 167 days. Moreover, the tumor growth delay in data set [1] is recorded as more than 187 days; in data set [4], 34 days. Besides, the tumor regression result in data set [1] is “complete regression in all surviving mice”. The “growth of the secondary spheroids” value with HT29 spheroids (100 nM for 48 h), in the data set with DLD-1 spheroids (100 nM for 48 h) and in the data set on HCT116 spheroids (100 nM for 48 h) was “marked suppression” each time. Further, the cytotoxicity in spheroids result with HT29 spheroids (3D multicellular spheroids), with DLD-1 spheroids (3D multicellular spheroids) and with HCT116 spheroids (3D multicellular spheroids) was “effectively induced cytotoxicity” in each case. Also, the stemness-associated genes entry in the data set on HT29 spheroids (gene list), in the data set with DLD-1 spheroids (gene list) and in the data set on HCT116 spheroids (gene list) was “downregulated” throughout. Moreover, the “time to polymerize tubulin” value with tubulin is “a matter of minutes”. Moreover, the “expression of p21 and p53” value with CD133+ PPT2 cells is “induced expression”. The “c-Myc and Sox2 in nuclear extracts (Western blot)” value in the data set with CD133+ PPT2 cells (CD133+ and bulk PPT2 cells) is “moderate down-regulation”. In data set [2] (until day 20, 120 mg/kg total dose), the weight loss is given as less than 4%. Moreover, the “potency relative to paclitaxel” value in [3] was 2-3 orders of magnitude. The compound further returned an MTD in [4] (mouse, in vivo) of approximately 120 mg/kg total dose.

`CC/C=C\C/C=C\C/C=C\C/C=C\C/C=C\C/C=C/CCC(=O)O[C@@H](C(=O)O[C@H]1C[C@@]2(O)[C@@H](OC(=O)c3ccccc3)C3[C@](C)(C(=O)[C@H](OC(C)=O)C(=C1C)C2(C)C)[C@@H](O)C[C@H]1OC[C@@]31OC(C)=O)[C@@H](NC(=O)c1ccccc1)c1ccccc1` (stereo partly shown) [DHA-paclitaxel, reference compound] registered an MTD in data set [5] of 240 mg/kg total dose. Besides, the “tumor growth delay as compared to vehicles” value in data set [2] was “only minor tumor growth delay”. The compound further registered a tumor growth delay in data set [4] of 3 days.

For the compound `CC/C=C\C/C=C\C/C=C\C/C=C\C/C=C\C/C=C\CCC(=O)O[C@@H](C(=O)O[C@H]1C[C@@]2(O)[C@@H](OC(=O)c3ccccc3)[C@@H]3[C@]4(OC(C)=O)CO[C@@H]4C[C@H](O)[C@@]3(C)C(=O)[C@H](OC(=O)C3CC3)C(=C1C)C2(C)C)[C@H](C=C(C)C)NC(=O)OC(C)(C)C` [DHA-SBT-1214], the “maximum tolerated dose (MTD)” value in data set [6] (80 mg/kg x 3 inj) amounted to 240 mg/kg total dosage. Also, the toxic death entry in data set [6] (300 mg/kg total dose) was “one toxic death”. Further, the tumor growth delay is more than 90 days in [6] (both schedules, q7dx3 and q3dx3); more than 187 days in data set [7] (setting [8]); 55 days in data set [4]. Moreover, the complete remissions result in [6] is “achieved complete remissions”. Further, the weight loss entry in [2] (240 mg/kg or 300 mg/kg total dose) was “negligible”. In addition, the “complete regression of the DLD-1 tumor” value in [7] (setting [8]) is 5 of 5. In data set [4] (mouse, in vivo), the MTD is on record as approximately 240 mg/kg total dose. The tolerability entry in data set [4] (mouse, in vivo) is reported as “clearly better tolerated than SBT-1214”.

For the compound `CC(=O)O[C@H]1C(=O)[C@@]2(C)[C@H]([C@H](OC(=O)c3ccccc3)[C@]3(O)C[C@H](OC(=O)[C@H](O)[C@@H](NC(=O)c4ccccc4)c4ccccc4)C(C)=C1C3(C)C)[C@]1(OC(C)=O)CO[C@@H]1C[C@@H]2O` [paclitaxel, reference compound], the “time to polymerize tubulin” value in the data set on tubulin is “hours”. Besides, the complete remissions result in data set [6] is recorded as “no complete remissions”. The tumor growth delay worked out at 13 days in data set [6] (q3dx3 schedule), 18 days in [6] (q7dx3 schedule) and 8 days in [4]. The “tumor growth delay as compared to vehicles” value in [2] is on record as “only minor tumor growth delay”. The “efficacy against tumor xenograft” value in data set [7] (s.c. xenograft) is reported as “totally ineffective”. Besides, the MTD in data set [4] (mouse, in vivo) is 75 mg/kg total dose.
